Laboratory results published in publication PMC9279632 (Acta Pharmaceutica Sinica. B, 2021).

What was measured:
[1] = target: NS2B−NS3 interactions (NLuc-NS2B49−66 / GST-CLuc-NS3) (Dengue virus type 2, UniProt P29990); test: Split luciferase complementation; assay type: binding
[2] = target: T1, NS2B−NS3 protease (His-tagged NS2B / DENV2 NS3-MBP fusion protein) (Dengue virus type 2, UniProt P29990); test: NS2B−NS3 protease inhibition assay with FRET substrate; assay type: biochemical
T1 sequence (P29990 1476-1653 limits assumed): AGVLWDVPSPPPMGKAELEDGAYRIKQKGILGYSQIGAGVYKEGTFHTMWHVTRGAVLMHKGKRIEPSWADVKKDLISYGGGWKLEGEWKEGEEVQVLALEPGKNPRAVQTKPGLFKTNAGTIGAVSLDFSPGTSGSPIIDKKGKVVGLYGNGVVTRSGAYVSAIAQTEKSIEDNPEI

[3] = test system: ZIKV PRVABC59; test: PFU viral plaque reduction assay in A549 cells; assay type: cell-based; details: Zika virus, A549, read-out: EC50 (anti-ZIKV)
[4] = test system: 3D mini-forebrain organoid; test: Toxicity to 3D mini-forebrain organoid; assay type: cell-based, human; details: Fig. S2; organoids fell apart and lost clear boundary
[5] = cited from earlier work
[6] = IC50-SLC (NS2B–NS3 interaction), split luciferase complementation, n = 3

Sequence of NS2B−NS3 interactions (NLuc-NS2B49−66 / GST-CLuc-NS3) (P29990 1476-1660): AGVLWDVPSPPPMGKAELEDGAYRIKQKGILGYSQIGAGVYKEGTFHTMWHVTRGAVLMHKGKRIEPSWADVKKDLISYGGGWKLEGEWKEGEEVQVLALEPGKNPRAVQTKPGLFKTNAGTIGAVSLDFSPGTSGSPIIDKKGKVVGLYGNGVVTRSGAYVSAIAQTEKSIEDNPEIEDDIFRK

Row | Compound | IC50 ([1]; IC50-SLC) | IC50 [1, 6] | IC50 [2] | EC50 [3] | toxicity to 3D organoids (morphology) [4] | cellular cytotoxicity [5]
1 | O=C1OC2(c3ccccc31)c1ccc(O)c(Cl)c1Oc1c2ccc(O)c1Cl [JMX0892, 4′,5′-Dichloro-3′,6′-dihydroxy-3H-spiro[isobenzofuran-1,9′-xanthen]-3-one] | ~50 µM | 50 µM | > 60 µM | > 15 µM |  | 
2 | O=C1OC2(c3ccccc31)c1ccc(O)c(Br)c1Oc1c2ccc(O)c1Br [JMX0893, 4′,5′-dibromo-3′,6′-dihydroxy-3H-spiro[isobenzofuran-1,9′-xanthen]-3-one] |  | 16 µM | > 60 µM | > 15 µM |  | 
3 | O=C1OC2(c3cc(Cl)c(O)cc3Oc3cc(O)c(Cl)cc32)c2ccccc21 [JMX0897, 2′,7′-Dichloro-3′,6′-dihydroxy-3H-spiro[isobenzofuran-1,9′-xanthen]-3-one] | ~50 µM | 48 µM | 23 µM | > 15 µM |  | 
4 | O=C1OC2(c3cc(I)c(O)c(I)c3Oc3c2cc(I)c(O)c3I)c2c(Cl)c(Cl)c(Cl)c(Cl)c21 [JMX0902, Sodium 4,5,6,7-tetrachloro-2′,4′,5′,7′-tetraiodo-3-oxo-3H-spiro[isobenzofuran-1,9′-xanthene]-3′,6′-bis(olate)] |  | 0.43 µM | 2.6 µM | 0.3 µM |  | 
5 | O=C1OC2(c3ccccc31)c1ccc(O)c(I)c1Oc1c2ccc(O)c1I [JMX0903, Sodium 4′,5′-diiodo-3-oxo-3H-spiro[isobenzofuran-1,9′-xanthene]-3′,6′-bis(olate)] |  | 15 µM | 60 µM | > 15 µM |  | 
6 | O=C1OC2(c3ccccc31)c1cc(Br)c(O)c(Br)c1Oc1c2cc(Br)c(O)c1Br [JMX0911, 2′,4′,5′,7′-tetrabromo-3′,6′-dihydroxy-3H-spiro[isobenzofuran-1,9′-xanthen]-3-one] |  | 3.4 µM |  | > 15 µM |  | 
7 | O=C1OC2(c3ccc(O)cc3Oc3cc(O)ccc32)c2ccc(NC(=S)NCCS)cc21 [JMX0912, 1-(3′,6′-Dihydroxy-3-oxo-3H-spiro[isobenzofuran-1,9′-xanthen]-5-yl)-3-(2-mercaptoethyl)thiourea] | > 50 µM | > 100 µM | 88 µM | > 15 µM |  | 
8 | O=C1OC2(c3ccc(O)cc3Oc3cc(O)ccc32)c2ccccc21 [JMX0915, 3′,6′-Dihydroxy-3H-spiro[isobenzofuran-1,9′-xanthen]-3-one] | > 50 µM | > 100 µM | > 100 µM | > 15 µM |  | 
9 | O=C(O)c1ccc2c(c1)C(=O)OC21c2ccc(O)cc2Oc2cc(O)ccc21 [JMX0920, 3′,6′-Dihydroxy-3-oxo-3H-spiro[isobenzofuran-1,9′-xanthene]-5-carboxylic acid] | > 50 µM | 53 µM | > 100 µM | > 15 µM |  | 
10 | Oc1cccc(-c2c3nc(c(-c4cccc(O)c4)c4ccc([nH]4)c(-c4cccc(O)c4)c4nc(c(-c5cccc(O)c5)c5ccc2[nH]5)CC4)C=C3)c1 [temoporfin] |  |  |  |  | significant toxicity | moderate cellular cytotoxicity
